Assay type in all cases: cell-based, human
For one test, the system named is CD34+ SPC. The test is described as follows: lineage commitment: HCFA with CD34+ SPC, count of mature blood cells after 14 days. Here is the method:
The mesenchyme cells (5×10^4 cells per well in a 24 well dish) were grown in IMDM plus 20% fetal bovine serum until they were nearly confluent. The medium was removed and was washed 2× with PBS. Two different ABME were prepared by using two biological hematomodulators (TGFβ1 10 ngml^−1, bFGF 10 ngml^−1, 18 hours) separately. The ABME formed was washed 2× with PBS and was covered with 0.2 ml of a suspension of CD34^+ SPC cells (10^5 ml−1) for 1 hour at 37° C. All the cells of the dish were then harvested after washing and were used in a HCFA. After 14 days, the mature blood cells formed were harvested and an aliquot of the suspension was examined under the microscope to identify and count the mature lymphoid and myeloid cells.
The mesenchyme cells (5×10^4 cells per well in a 24 well dish) were grown in IMDM plus 20% fetal bovine serum until they were nearly confluent. The medium was removed and was washed 2× with PBS. The cells in one well were treated with a DiBromo derivative of the Calcium ion chelator BAPTA (5 micromolar) for one hour whereas another well received only the medium without the BAPTA derivative. After 1 hour of incubation at 37° C., TGFβ1 was added to both the wells (10 ng ml−1) and the incubation was continued for a further period of 18 hours. The ABME formed in both wells were washed and were used for HCFA using CD34^+ SPC. After 14 days the mature blood cells were harvested and were quantitated for the cells of erythroid and myeloid lineage.

Test [1] concerns mesenchymal cells (ABME) with MNC. Briefly: quantitative hematopoietic colony formation assay for ABME (HCFA-ABME): MNC with hematomodulator-contacted mesenchymal cells. From the text: As described above, the medium for blood cell formation employed may be IMDM with 20% serum and supplemented with interleukins such as IL-lbeta, IL-3, and IL-6, stem cell factor, lineage specific growth factors such as erythropoietin and GM-CSF, G-CSF; and methyl cellulose to the extent of 0.8%, the culture is maintained for 12-14 days under the culture conditions whereby blood cell colonies grow well or form colonies and clearly the growth is visible/distinguishable for further analysis and use. An assay designed in a similar manner to assess quantitative nature of ABME function is referred hereafter as ‘quantitative hematopoietic colony formation assay for ABME (HCFA-ABME)’.
Several experiments were conducted to determine that mesenchymal cells exert direct influence on SPC cell-fate. In one set of experiments, mesenchymal cells were cultured separately and nearly 50,000 of them were exposed to a typical HCFA medium comprising 0.8% methyl cellulose in IMDM and 20-30% serum along with excess amounts of various purified and human specific cytokines and hematopoietic colony stimulating growth factors (from Stem cell Technologies, […], Canada). More specifically, the quantities of hematopoietic growth factors used routinely in HCFA were, 2 International Units per milliliter (2 I.U.ml^−1) of Erythropietin (EPO), 50 nanogram per milliliter (50 ng.ml^−1) of Stem Cell Factor (SCF) and 20 nanogram per milliliter (20 ng/ml^−1) each of Granulocyte-Macrophage-Colony Stimulating Factor (GM-CSF), Granulocyte-Colony Stimulating Factor (G-CSF), Interleukin-1 beta (IL-1β), Interleukin-3 (IL-3) and Interleukin-6 (IL-6) {all growth factors and cytokines are from Stem cell Technologies, Vancouver, Canada,}.
In another set of experiments, 50,000 of the same mesenchymal cells were first mixed with nearly 100,000 MNC, held at 37° C. for at least 30 minutes and were processed for colony formation assays. In several experiments, a consistent improvement in the number and cellularity of the hematopoietic colonies was seen when both these two cell types were mixed compared to a reference where only the cells of MNC were used. The increase was ranging from 1.5 to 10-fold. Thus, the enhancement in colony formation obtained with the use of only mesenchymal cells was highly variable and unpredictable among samples. The fact that hematopoietic colonies formed in increased numbers and cellularity only when MNC and mesenchymal cells were processed together is evidence of a new environment created by the mesenchymal cells in which the SPC present in the MNC were more productive. This increase results in activation of the pre-existing but quiescent SPC, formation of new SPC due to self-renewal, and a combination of both factors.
In order to create ABME, the mesenchymal cells were covered with the contacting medium comprising hematomodulators contained in IMDM with 20% human serum or fetal bovine serum for a desirable period (range 8-24 hours) and removed. The contacted cells were then washed 2 times using the contacting medium (IMDM +20% FCS) without hematomodulators and used as such or after harvesting the mesenchymal cells, which now represent the composition of in vitro ABME. Optionally, ABME cells can be configured on supports that will distribute them in two or more dimensions for better results. A requisite number of MNC/SPC and cells of the ABME are taken and kept together for a suitable duration (range 0.5 to 6 hours) after which they were processed for in vitro hematopoietic colony formation assays or hematopoiesis.
Thus, the inventors undertook 4 sets of experiments: (a) wherein mononuclear cells were exposed to mesenchymal cells without any treatment; (b) wherein MNC were exposed to mesenchymal cells contacted with a biological agent [TGFβ1] […]

The next test concerns SPC. The test is described as follows: priming of SPC before contact with ABME, colony formation. To be noted: for colony/blood cell formation after priming SPC: SPC primed with agent. From the text: Experiments were directed to determine if the ABME had properties that promoted cell survival.
The next test relates to αiib:β3 integrin. Briefly: engraftment: HCFA of CD34+ SPC attached to ABME formed via αiib:β3 integrin signaling. Particulars: FIG. 7. How it is done: The mesenchyme cells (5×10^4 cells per well in a 24 well dish) were grown in IMDM plus 20% fetal bovine serum until they were nearly confluent. The medium was removed and was washed 2× with PBS. ABME was prepared by using a chemical hematomodulator [Biotin-Ser-Gly-Ser-Gly-Cys*-Asn-Pro-Arg-Gly-Asp (Tyr-OMe)Arg-Cys*Lys (cyclised between C*-C*), 10 microgram ml^−1, 18 hours] that selectively activated αiib:β3 integrin signaling in the mesenchyme cells. The ABME formed was washed 2× with PBS and was covered with 0.2 ml of a suspension of CD34^+ SPC cells (10^5 ml−1) for 1 hour, in the presence or absence of another peptide [1-Adamantaneacetyl-Cys*Gly-Arg-Gly-Asp-Ser-Pro-C(Cyclised between Cys*-Cys*)]which inhibited the interactions of αiib:β3 integrin. At the end of incubation, the cells were washed 2× with PBS and were processed for hematopoietic colony formation assays (HCFA). […] More specifically, the quantities of hematopoietic growth factors used routinely in HCFA were, 2 International Units per milliliter (2 I.U.ml^−1) of Erythropoietin (EPO), 50 nanogram per milliliter (50 ng.ml^−1) of Stem Cell Factor (SCF) and 20 nanogram per milliliter (20 ng/ml^−1) each of Granulocyte-Macrophage-Colony Stimulating Factor (GM-CSF), Granulocyte-Colony Stimulating Factor (G-CSF), Interleukin-1 beta (IL-1β), Interleukin-3 (IL-3) and Interleukin-6 (IL-6). […]

`O=C(O)CN(CC(=O)O)c1ccc(Br)cc1OCCOc1cc(Br)ccc1N(CC(=O)O)CC(=O)O` [DiBromo BAPTA, DiBromo derivative of Ca^++ chelator BAPTA, reference compound]: in the test with CD34+ SPC (5 micromolar for one hour, then TGFβ1 10 ng ml-1 18 hours, vs TGFβ1 alone, FIG. 8b), the “proportion of myeloid and erythroid cells” value is “significant difference in the proportion of myeloid and erythroid cell population”.
Take HuFGF-2: the “mature lymphoid and myeloid cells formed” value in the test with CD34+ SPC (10 ngml^-1, 18 hours, HCFA 14 days, FIG. 8a) is recorded as “more of lymphoid cells were produced”. In test [1] (1-25 nano gram.ml^-1, mesenchymal cells contacted 8-24 hours), the “efficiency of ABME created” value is listed as “equally efficient ABME”. Moreover, in test [1] (lineage specific colony formation assay, FIG. 3A, vs control without biological agent), the “colony formation along lineages GEMM, BFU-E and GM” value is given as “uniformly stimulated”. Moreover, the “potency in creating ABME from mesenchymal cells” value in test [1] (used separately) is listed as “nearly equipotent”.
As to “IGF-1: priming agent activating IGF-I receptor signals”, the “colony/blood cell formation after priming SPC” value (“colony/blood cell formation” below) in the test on SPC is given as “improved colony/blood cell formation”.
Regarding `CC(C)[C@H]1C(=O)N[C@H](CO)Cc2c[nH]c3cccc(c23)N1C` [chemical agent 1, (—) Indolactam V, reference compound], the “colonies of cells relative to (A)” value in test [1] (MNC exposed to mesenchymal cells contacted with chemical agent, (A) = untreated mesenchymal cells) was “at least 4 times”.
In the case of “Latency Associated peptide of human TGF beta1.”, in the test on SPC, the “colony/blood cell formation” value is reported as “improved colony/blood cell formation”.
For the compound “IGF-II: priming agent, Mannose6-phosphate/IGF-II receptor”, in the test with SPC, the “colony/blood cell formation” value is listed as “improved colony/blood cell formation”.
With `NC(=O)c1cccc(N)c1` [3 Amino Benzamide, reference compound], the “colony/blood cell formation” value in the test with SPC is “improved colony/blood cell formation”. Also, the “number of hematopoietic colonies formed from treated SPC” value in the test on SPC (SPC treated to inhibit Poly(ADP-ribose) Polymerase, FIG. 9) is “synergistically increasing the number of hematopoietic colonies formed”.
For the compound “1-Adamantaneacetyl-Cys*Gly-Arg-Gly-Asp-Ser-Pro-C(Cyclised between Cys*-Cys*) (GRGDSP; N-terminal 1-adamantaneacetyl-Cys, C-terminal Cys; cyclised Cys-Cys; printed: Gly-Arg-Gly-Asp-Ser-Pro-)”, the “hematopoietic colony numbers in presence of inhibitory peptide” value in the test on αiib:β3 integrin (inhibitor present during SPC contact with ABME formed by activating peptide) is on record as “colony numbers decreased in an inhibitor dose dependent manner”.
For the compound “Biotin-Ser-Gly-Ser-Gly-Cys*-Asn-Pro-Arg-Gly-Asp (Tyr-OMe)Arg-Cys*Lys (cyclised between C*-C*)”, the “hematopoietic colonies formed by ABME (activating peptide)” value with αiib:β3 integrin (10 microgram ml^-1, 18 hours, CD34+ SPC 1 hour, HCFA 12-14 days) is “significantly more number of hematopoietic colonies”.

The record behind these values is patent US20080241870A1, “Composition For Creating an Artificial Bone Marrow Like Environment and Use Thereof” (NATIONAL CENTRE FOR CELL SCINECES, priority 2005, published 2008).
